Test results taken from patent US10399940B2, “Substituted pyrrolidines and methods of use” (AbbVie S.à.r.l., priority 2016, dated 2019).
Like-named read-outs stand apart in the source and are kept apart here.

Target: T1, F508delCFTR (Homo sapiens, UniProt P13569, DEL508-508)
T1 construct: expressed in transfected cells; host or cells: CFBE41o- (human lung derived epithelial cell line), doxycycline-inducible expression
Experiment: Cell Surface Expression-Horse Radish Peroxidase (CSE-HRP) assay
Assay type: cell-based
Conditions: CFBE41o-F508delCFTR-HRP cells; for Maximum % activity (with co-corrector): with co-corrector (2 μM); for Maximum % activity (with co-corrector) / Maximum % activity (without co-corrector): normalized to on-plate positive control, highest concentration 20 μM
Outline: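 CFBE41o- cells expressed F508delCFTR with HRP in the fourth exofacial loop, induced by 0.5 μg/mL doxycycline for 72 h at 37 °C. Compounds alone or with 2 μM co-corrector ran 18–24 h at 33 °C, 8-point 3-fold from 20 μM. Washed-cell luminol luminescence was normalized to DMSO and positive control, fitted sigmoidally for EC50 (three plates).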

[1] = test compound without co-corrector, 18-24 hours at 33° C., read-out: EC50 (without co-corrector)
[2] = with co-corrector (2 μM of 3-[(2R,4R)-4-({[1-(2,2-difluoro-1,3-benzodioxol-5-yl)cyclopropyl]carbonyl}amino)-7-methoxy-3,4-dihydro-2H-chromen-2-yl]benzoic acid), read-out: EC50 (with co-corrector)

T1 sequence (P13569 with tags, fused parts or gaps DEL508-508): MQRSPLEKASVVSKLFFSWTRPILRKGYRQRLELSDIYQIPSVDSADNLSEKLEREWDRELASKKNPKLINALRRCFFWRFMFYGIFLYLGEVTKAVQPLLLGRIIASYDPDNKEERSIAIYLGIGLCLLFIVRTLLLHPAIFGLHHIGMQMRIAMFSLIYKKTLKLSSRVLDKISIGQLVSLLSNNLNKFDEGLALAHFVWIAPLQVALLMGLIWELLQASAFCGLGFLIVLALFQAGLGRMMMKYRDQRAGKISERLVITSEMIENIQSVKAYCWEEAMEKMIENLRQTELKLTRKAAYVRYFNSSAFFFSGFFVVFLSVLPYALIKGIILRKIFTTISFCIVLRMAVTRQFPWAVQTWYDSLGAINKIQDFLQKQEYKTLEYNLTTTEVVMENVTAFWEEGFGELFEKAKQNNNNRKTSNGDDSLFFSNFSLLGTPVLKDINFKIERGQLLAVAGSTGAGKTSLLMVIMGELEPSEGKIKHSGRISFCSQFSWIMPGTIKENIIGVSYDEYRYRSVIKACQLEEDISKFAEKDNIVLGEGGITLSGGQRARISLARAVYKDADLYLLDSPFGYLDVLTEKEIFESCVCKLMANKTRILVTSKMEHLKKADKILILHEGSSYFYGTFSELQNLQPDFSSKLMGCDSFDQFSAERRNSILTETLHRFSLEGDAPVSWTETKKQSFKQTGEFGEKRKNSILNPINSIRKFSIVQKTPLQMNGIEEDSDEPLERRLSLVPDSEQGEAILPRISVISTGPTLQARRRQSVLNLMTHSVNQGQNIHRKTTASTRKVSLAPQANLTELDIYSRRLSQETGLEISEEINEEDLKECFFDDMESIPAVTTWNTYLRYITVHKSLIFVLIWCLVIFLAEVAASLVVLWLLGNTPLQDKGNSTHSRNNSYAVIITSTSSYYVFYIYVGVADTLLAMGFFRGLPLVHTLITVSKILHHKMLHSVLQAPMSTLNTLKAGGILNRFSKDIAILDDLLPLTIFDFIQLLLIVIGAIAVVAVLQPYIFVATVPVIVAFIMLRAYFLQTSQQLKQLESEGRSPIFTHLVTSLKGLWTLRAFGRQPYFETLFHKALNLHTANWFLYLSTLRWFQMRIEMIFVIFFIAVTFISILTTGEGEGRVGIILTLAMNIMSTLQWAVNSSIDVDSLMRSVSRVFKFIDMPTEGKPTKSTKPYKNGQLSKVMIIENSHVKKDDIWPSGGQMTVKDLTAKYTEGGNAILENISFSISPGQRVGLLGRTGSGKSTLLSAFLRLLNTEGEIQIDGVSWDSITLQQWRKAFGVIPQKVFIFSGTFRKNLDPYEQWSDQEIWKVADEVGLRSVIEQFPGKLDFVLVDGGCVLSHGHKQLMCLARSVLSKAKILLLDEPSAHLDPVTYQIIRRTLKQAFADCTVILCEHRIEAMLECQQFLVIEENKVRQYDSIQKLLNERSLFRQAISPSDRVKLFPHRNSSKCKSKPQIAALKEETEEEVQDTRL

Row | EC50 [1] [nM] | EC50 [2] [nM] | Maximum % activity (with co-corrector) | Maximum % activity (without co-corrector) | Structure (SMILES)
1 | > 10000 | 1000 to 10000 | ++ (≥150 and <350) | + (<100) | Cc1ccccc1[C@H]1[C@@H](OCc2nc3ccccc3n2C)[C@H](C(C)(C)C)[C@@H](C(=O)O)N1C(=O)[C@@H]1CCCCO1 [Example 255, (2S,3R,4S,5S)-3-tert-butyl-4-[(1-methyl-1H-benzimidazol-2-yl)methoxy]-5-(2-methylphenyl)-1-[(2S)-oxane-2-carbonyl]pyrrolidine-2-carboxylic acid]
2 | 1000 to 10000 | < 1000 | +++ (≥350) | + (<100) | COc1ncc(C2CCC2)cc1CO[C@H]1[C@H](C(C)(C)C)[C@@H](C(=O)O)N(C(=O)C2CCCCC2)[C@H]1c1cccc2c1OC(C)(C)C2 [Example 256, (2S,3R,4S,5S)-3-tert-butyl-4-[(5-cyclobutyl-2-methoxypyridin-3-yl)methoxy]-1-(cyclohexanecarbonyl)-5-(2,2-dimethyl-2,3-dihydro-1-benzofuran-7-yl)pyrrolidine-2-carboxylic acid]
3 | < 1000 | < 1000 | ++ (≥150 and <350) | + (<100) | COc1ncc(C(F)(F)F)cc1CO[C@H]1[C@H](C(C)(C)C)[C@@H](C(=O)O)N(C(=O)C2CCCCC2)[C@H]1c1cccc2c1OC(C)(C)C2 [Example 257, (2S,3R,4S,5S)-3-tert-butyl-1-(cyclohexanecarbonyl)-5-(2,2-dimethyl-2,3-dihydro-1-benzofuran-7-yl)-4-{[2-methoxy-5-(trifluoromethyl)pyridin-3-yl]methoxy}pyrrolidine-2-carboxylic acid]
4 | < 1000 | < 1000 | +++ (≥350) | +++ (≥200) | COc1ncc(C(F)(F)F)cc1CO[C@H]1[C@H](C(C)(C)OC)[C@@H](C(=O)O)N(C(=O)C2CCCCC2)[C@H]1c1ccccc1C(C)C [Example 258, (2S,3R,4S,5S)-1-(cyclohexanecarbonyl)-3-(2-methoxypropan-2-yl)-4-{[2-methoxy-5-(trifluoromethyl)pyridin-3-yl]methoxy}-5-[2-(propan-2-yl)phenyl]pyrrolidine-2-carboxylic acid]
5 | < 1000 | < 1000 | +++ (≥350) | +++ (≥200) | COc1ncc(C(F)(F)F)cc1CO[C@H]1[C@H](C(C)(C)OC)[C@@H](C(=O)O)N(C(=O)OC(C)C)[C@H]1c1ccccc1C(C)C [Example 259, (2S,3R,4S,5S)-3-(2-methoxypropan-2-yl)-4-{[2-methoxy-5-(trifluoromethyl)pyridin-3-yl]methoxy}-1-{[(propan-2-yl)oxy]carbonyl}-5-[2-(propan-2-yl)phenyl]pyrrolidine-2-carboxylic acid]
6 | < 1000 | < 1000 | +++ (≥350) | +++ (≥200) | COc1ncc(C(F)(F)F)cc1CO[C@H]1[C@H](C(C)(C)OC)[C@@H](C(=O)O)N(C(=O)[C@@H]2CCCCO2)[C@H]1c1ccccc1C(C)C [Example 260, (2S,3R,4S,5S)-3-(2-methoxypropan-2-yl)-4-{[2-methoxy-5-(trifluoromethyl)pyridin-3-yl]methoxy}-1-[(2S)-oxane-2-carbonyl]-5-[2-(propan-2-yl)phenyl]pyrrolidine-2-carboxylic acid]
7 | 1000 to 10000 | < 1000 | +++ (≥350) | +++ (≥200) | COc1ccc(C(F)(F)F)cc1C(C)CO[C@H]1[C@H](C(C)(C)C)[C@@H](C(=O)O)N(C(=O)[C@@H]2CCCCO2)[C@H]1c1ccccc1C (stereo partly drawn) [Example 261, (2S,3R,4S,5S)-3-tert-butyl-4-{2-[2-methoxy-5-(trifluoromethyl)phenyl]propoxy}-5-(2-methylphenyl)-1-[(2S)-oxane-2-carbonyl]pyrrolidine-2-carboxylic acid]
8 | 1000 to 10000 | 1000 to 10000 | ++ (≥150 and <350) | + (<100) | COc1ccc(C(F)(F)F)cc1[C@](O)(CO)CO[C@H]1[C@H](C(C)(C)C)[C@@H](C(=O)O)N(C(=O)[C@@H]2CCCCO2)[C@H]1c1ccccc1C [Example 262, (2S,3R,4S,5S)-3-tert-butyl-4-{(2S)-2,3-dihydroxy-2-[2-methoxy-5-(trifluoromethyl)phenyl]propoxy}-5-(2-methylphenyl)-1-[(2S)-oxane-2-carbonyl]pyrrolidine-2-carboxylic acid]
9 | > 10000 | 1000 to 10000 | ++ (≥150 and <350) | + (<100) | COc1ccc(C(F)(F)F)cc1[C@@](O)(CO)CO[C@H]1[C@H](C(C)(C)C)[C@@H](C(=O)O)N(C(=O)[C@@H]2CCCCO2)[C@H]1c1ccccc1C [Example 263, (2S,3R,4S,5S)-3-tert-butyl-4-{(2R)-2,3-dihydroxy-2-[2-methoxy-5-(trifluoromethyl)phenyl]propoxy}-5-(2-methylphenyl)-1-[(2S)-oxane-2-carbonyl]pyrrolidine-2-carboxylic acid]
10 | 1000 to 10000 | 1000 to 10000 | +++ (≥350) | + (<100) | COc1ccc(C(F)(F)F)cc1C(=O)CO[C@H]1[C@H](C(C)(C)C)[C@@H](C(=O)O)N(C(=O)[C@@H]2CCCCO2)[C@H]1c1ccccc1C [Example 264, (2S,3R,4S,5S)-3-tert-butyl-4-{2-[2-methoxy-5-(trifluoromethyl)phenyl]-2-oxoethoxy}-5-(2-methylphenyl)-1-[(2S)-oxane-2-carbonyl]pyrrolidine-2-carboxylic acid]
11 | < 1000 | < 1000 | +++ (≥350) | ++ (≥100 and <200) | COc1ncc(C2CCC2)cc1CO[C@H]1[C@H](C(C)(C)C)[C@@H](C(=O)O)N(C(=O)OC(C)C(F)(F)F)[C@H]1c1cccnc1OC(C)C (stereo partly drawn) [Example 265, (2S,3R,4S,5S)-3-tert-butyl-4-[(5-cyclobutyl-2-methoxypyridin-3-yl)methoxy]-5-{2-[(propan-2-yl)oxy]pyridin-3-yl}-1-{[(1,1,1-trifluoropropan-2-yl)oxy]carbonyl}pyrrolidine-2-carboxylic acid]
12 | 1000 to 10000 | < 1000 | +++ (≥350) | ++ (≥100 and <200) | COc1ncc(C2CCC2)cc1CO[C@H]1[C@H](C(C)(C)C)[C@@H](C(=O)O)N(C(=O)O[C@H](C)C(F)(F)F)[C@H]1c1cccnc1OC(C)C [Example 266, (2S,3R,4S,5S)-3-tert-butyl-4-[(5-cyclobutyl-2-methoxypyridin-3-yl)methoxy]-5-{2-[(propan-2-yl)oxy]pyridin-3-yl}-1-({[(2R)-1,1,1-trifluoropropan-2-yl]oxy}carbonyl)pyrrolidine-2-carboxylic acid]
13 | 1000 to 10000 | < 1000 | +++ (≥350) | ++ (≥100 and <200) | COc1ncc(C2CCC2)cc1CO[C@H]1[C@H](C(C)(C)C)[C@@H](C(=O)O)N(C(=O)O[C@@H](C)C(F)(F)F)[C@H]1c1cccnc1OC(C)C [Example 267, (2S,3R,4S,5S)-3-tert-butyl-4-[(5-cyclobutyl-2-methoxypyridin-3-yl)methoxy]-5-{2-[(propan-2-yl)oxy]pyridin-3-yl}-1-({[(2S)-1,1,1-trifluoropropan-2-yl]oxy}carbonyl)pyrrolidine-2-carboxylic acid]
14 | 1000 to 10000 | 1000 to 10000 | +++ (≥350) | + (<100) | COc1ccc(C(F)(F)F)cc1C(O)CO[C@H]1[C@H](C(C)(C)C)[C@@H](C(=O)O)N(C(=O)[C@@H]2CCCCO2)[C@H]1c1ccccc1C (stereo partly drawn) [Example 268, (2S,3R,4S,5S)-3-tert-butyl-4-{2-hydroxy-2-[2-methoxy-5-(trifluoromethyl)phenyl]ethoxy}-5-(2-methylphenyl)-1-[(2S)-oxane-2-carbonyl]pyrrolidine-2-carboxylic acid]
15 | 1000 to 10000 | < 1000 | +++ (≥350) | +++ (≥200) | COc1ccc(C(F)(F)F)cc1C(CO[C@H]1[C@H](C(C)(C)C)[C@@H](C(=O)O)N(C(=O)[C@@H]2CCCCO2)[C@H]1c1ccccc1C)OC (stereo partly drawn) [Example 269, (2S,3R,4S,5S)-3-tert-butyl-4-{2-methoxy-2-[2-methoxy-5-(trifluoromethyl)phenyl]ethoxy}-5-(2-methylphenyl)-1-[(2S)-oxane-2-carbonyl]pyrrolidine-2-carboxylic acid]
16 | < 1000 | < 1000 | +++ (≥350) | +++ (≥200) | COc1ccc(C(C)(C)C)cc1CO[C@H]1[C@H](C(C)(C)OC)[C@@H](C(=O)O)N(C(=O)[C@@H]2CCCCO2)[C@H]1c1ccccc1C(C)C [Example 270, (2S,3R,4S,5S)-4-[(5-tert-butyl-2-methoxyphenyl)methoxy]-3-(2-methoxypropan-2-yl)-1-[(2S)-oxane-2-carbonyl]-5-[2-(propan-2-yl)phenyl]pyrrolidine-2-carboxylic acid]
